Laboratory results taken from patent US20230000813A1, “COMPOUND FOR THE TREATMENT OF BOVINE OR SWINE RESPIRATORY DISEASE” (Intervet Inc., priority 2016, published 2023).
Values after ≈ are worked out from the molar mass of the structure shown. Values joined by “and” are separate entries in the source; they are usually repeats but may differ in a detail not shown here. Identical values can stand only once.

Key:
[1] = test system: Mannheimia haemolytica MH 10720 (154, BRD field isolate); experiment: MIC, broth-microdilution (CLSI VET01-A4); type: cell-based; conditions: strain MH 10720
Summary of the method: (§1)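 Visual no-turbidity endpoint over twofold compound dilutions in microdilution trays, interpreted according to CLSI VET01-S3.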

[2] = test system: Mannheimia haemolytica MH 12587 (1071, BRD field isolate, macrolide-resistance: erm+, E+); experiment: MIC, broth-microdilution (CLSI VET01-A4); type: cell-based; conditions: strain MH 12587, macrolide-resistant
Summary of the method: as §1

[3] = test system: Mannheimia haemolytica MH 6357 (M7/2, reference strain, cattle infection strain); experiment: MIC, broth-microdilution (CLSI VET01-A4); type: cell-based; conditions: strain MH 6357
Summary of the method: as §1

[4] = test system: Mannheimia haemolytica MH 6374 (ATCC 33396, reference strain); experiment: MIC, broth-microdilution (CLSI VET01-A4); type: cell-based; conditions: strain MH 6374
Summary of the method: as §1

[5] = test system: Pasteurella multocida PM 10775 (080130003051, BRD field isolate); experiment: MIC, broth-microdilution (CLSI VET01-A4); type: cell-based; conditions: strain PM 10775
Summary of the method: as §1

[6] = test system: Pasteurella multocida PM 12080 (IV102277-0093, BRD field isolate); experiment: MIC, broth-microdilution (CLSI VET01-A4); type: cell-based; conditions: strain PM 12080
Summary of the method: as §1

[7] = test system: Pasteurella multocida PM 6267 (P 2225 (L386), reference strain, mouse infection strain); experiment: MIC, broth-microdilution (CLSI VET01-A4); type: cell-based; conditions: strain PM 6267
Summary of the method: as §1

[8] = test system: Pasteurella multocida PM 6391 (ATCC 43137, reference strain); experiment: MIC, broth-microdilution (CLSI VET01-A4); type: cell-based; conditions: strain PM 6391
Summary of the method: as §1

[9] = test system: Acinetobacter baumanii AB 15919 (IV369-2012, dermatitis field isolate); experiment: MIC, broth-microdilution (CLSI VET01-A4); type: cell-based; conditions: strain AB 15919
Protocol: (§2) The Minimum inhibitory concentrations (MIC) of compounds according to the invention were determined by the broth-microdilution method according to CLSI document VET01-A4.
(§3) Microdilution trays containing a doubling dilution series of the test compound were used for the tests.
(§4) The MIC results were interpreted according to the CLSI documents VET01-S3. The lowest concentration of compound at which no visible growth (i.e. no turbidity) detected by the unaided eye was recorded as the MIC.

[10] = test system: Acinetobacter baumanii AB 16496 (ATCC 19606, reference strain); experiment: MIC, broth-microdilution (CLSI VET01-A4); type: cell-based; conditions: strain AB 16496
Protocol: as §2, §3, §4

[11] = test system: Mannheimia haemolytica MH 12180 (KLI-02944, BRD field isolate); experiment: MIC, broth-microdilution (CLSI VET01-A4); type: cell-based; conditions: strain MH 12180
Protocol: as §2, §3, §4

[12] = test system: Pasteurella multocida PM 14426 (0006-439, BRD field isolate, macrolide-resistant); experiment: MIC, broth-microdilution (CLSI VET01-A4); type: cell-based; conditions: strain PM 14426, macrolide-resistant
Protocol: as §2, §3, §4

[13] = test system: Staphylococcus aureus SA 5816 (2139, mastitis field isolate); experiment: MIC, broth-microdilution (CLSI VET01-A4); type: cell-based; conditions: strain SA 5816
Protocol: as §2, §3, §4

[14] = test system: Staphylococcus aureus SA 6114 (ATCC 29213, reference strain); experiment: MIC, broth-microdilution (CLSI VET01-A4); type: cell-based; conditions: strain SA 6114
Protocol: as §2, §3, §4

[15] = test system: 20 isolates of Actinobacillus (A.) pleuropneumoniae; experiment: MIC50/MIC90, broth-microdilution, European respiratory tract isolates; type: cell-based
Protocol: (§5) The in vitro activity of compounds against 20 isolates of Actinobacillus (A.) pleuropneumoniae, 20 of Bordetella (B.) bronchiseptica, 20 of Histophilus (H.) somni, 40 of Mannheimia (M.) haemolytica and 40 of Pasteurella (P.) multocida collected in different European countries were determined. All bacteria were isolated from the respiratory tract of swine and cattle suffering from respiratory disease. All isolates were epidemiologically unrelated as specified by the different suppliers.
(§6) The minimum inhibitory concentrations (MIC) of compounds according to the invention were determined by the broth-microdilution method according to CLSI document VET01-A4.
(§7) Microdilution trays containing a doubling dilution series of the test compounds were used for the tests.
as §4

[16] = test system: 20 isolates of Bordetella (B.) bronchiseptica; experiment: as above; type: cell-based
Protocol: as §5, §6, §7, §4

[17] = test system: 20 isolates of Histophilus (H.) somni; experiment: as above; type: cell-based
Protocol: as §5, §6, §7, §4

[18] = test system: 40 isolates of Mannheimia (M.) haemolytica; experiment: as above; type: cell-based
Protocol: as §5, §6, §7, §4

[19] = test system: 40 isolates of Pasteurella (P.) multocida; experiment: as above; type: cell-based
Protocol: as §5, §6, §7, §4

M. haemolytica M7/2 = experiment: Mannheimia haemolytica cattle lung infection model, efficacy (Example 9); type: in vivo, cattle calves; conditions: for Food consumption, cumulated for all animals in the group: 3 calves, SC 10 mg/kg BW
Protocol: (§8) Unless otherwise described the study was conducted as described in Example 8.
Calves were infected via intratracheal instillation of appr. 300 mL of M. haemolytica PBS suspension containing approximately 4×10^9 CFU M. haemolytica in late log phase on Day 0.
The following clinical findings were recorded: The general behavior scores of the animals before (DO am) and after infection with M. haemolytica in the different treated and control groups are indicated in FIG. 7-1: 0 =normal; 1=slightly depressive, 2=moderately depressive, 3=highly depressive, […] recumbency.
The following pathomorphological findings after section on Day 2 were recorded: After measuring the body weight and the lung weight the Lung body mass ratio was calculated as shown in FIG. 7-2. A healthy animal has a lung body mass ration around 1.7 or lower. The area percentage of lung consolidations compared to the total lung tissue and the lung score determined that is a combined score of such percentage of lung consoldiations and the grade. For the “grade” the degree of lung consolidation score was graded from 0 to 3 for each of eight lung lobes: 0 no visible changes, 1 low graded colour changes or induration, 2 medium graded induration, 3 high graded induration, hepatisation, necrosis.
The geometrical means (CFU/g tissue) of bacteriological re-isolations of Mannheimia haemolytica from lung tissue are illustrated in FIG. 7-4.

[20] = Plasma and tissue concentrations and pharmacokinetics in infected calves (Example 9); type: in vivo, cattle calves
Protocol: as §8

[21] = calves infected with M. haemolytica, SC, single, 10 mg/kg BW, x = number of animals, n = total in group
[22] = SC single 10 mg/kg (C.105, C.189 in 10% Poloxamer 188; C.326 in 30% Captisol), individual animals and mean
[23] = SC single 10 mg/kg (C.105, C.189 in 10% Poloxamer 188; C.326 in 30% Captisol), individual animals and mean, 10 mg/kg
[24] = plasma, SC 10 mg/kg, mean, Phoenix WinNonlin

Structure (SMILES): COCCNCc1ccc(C#Cc2ccc(C(=O)N[C@H](C(=O)NO)[C@@H](C)O)cc2)s1 [C. 189]
- MIC [1]: 0.125 µg/mL (≈ 0.29 µM)
- MIC [2]: 1 µg/mL (≈ 2.32 µM)
- MIC [3]: 0.5 µg/mL (≈ 1.16 µM)
- MIC [4]: 0.25 µg/mL (≈ 0.579 µM)
- MIC [5]: ≤0.016 µg/mL
- MIC [6]: 0.063 µg/mL (≈ 0.146 µM)
- MIC [7]: 0.5 µg/mL (≈ 1.16 µM)
- MIC [8]: 0.25 µg/mL (≈ 0.579 µM)
- MIC [9]: >16 µg/mL
- MIC [10]: >16 µg/mL
- MIC [11]: 0.25 µg/mL (≈ 0.579 µM)
- MIC [12]: 0.032 µg/mL (≈ 0.0742 µM)
- MIC [13]: >16 µg/mL
- MIC [14]: >16 µg/mL
- MIC50 [15]: 0.25 µg/mL (≈ 0.579 µM)
- MIC90 [15]: 0.25 µg/mL (≈ 0.579 µM)
- MIC50 [16]: >16 µg/mL
- MIC90 [16]: >16 µg/mL
- MIC50 [17]: 0.032 µg/mL (≈ 0.0742 µM)
- MIC90 [17]: 0.063 µg/mL (≈ 0.146 µM)
- MIC50 [18]: 0.25 µg/mL (≈ 0.579 µM)
- MIC90 [18]: 0.5 µg/mL (≈ 1.16 µM)
- MIC50 [19]: 0.032 µg/mL (≈ 0.0742 µM)
- MIC90 [19]: 0.063 µg/mL (≈ 0.146 µM)
- Food consumption, cumulated for all animals in the group (M. haemolytica M7/2; D 0 am, after infection and treatment): 4800 g
- Food consumption, cumulated for all animals in the group (M. haemolytica M7/2; D 0 pm): 4800 g
- Food consumption, cumulated for all animals in the group (M. haemolytica M7/2; D +1 am): 4800 g
- Food consumption, cumulated for all animals in the group (M. haemolytica M7/2; D +1 pm): 4800 g
- Food consumption, cumulated for all animals in the group (M. haemolytica M7/2; D −1 (before infection)): 4800 g
- Bacteriological Cure (x of n) (M. haemolytica M7/2; [21]): 1/3
- Survival (x of n) (M. haemolytica M7/2; [21]): 3/3
- efficacy against an artificial lung infection with M. haemolytica M7/2 in the calf (M. haemolytica M7/2; tested dosage of 10 mg/kg, conclusion in words): effective
- Concentration, Plasma 48 h [20, 22]: BLQ
- Concentration, Tissue (48 h) ELF [20, 22]: BLQ
- Concentration, Tissue (48 h) Liver [20, 22]: 22.5 ng/mL
- Concentration, Tissue (48 h) Lung [20, 22]: BLQ
- Concentration, Tissue (48 h) Muscle [20, 22]: BLQ
- Concentration, Plasma 0.5 h [20, 23]: 916 ng/mL and 892 ng/mL and 1350 ng/mL
- Concentration, Plasma 2 h [20, 23]: 465 ng/mL and 663 ng/mL and 788 ng/mL
- Concentration, Plasma 4 h [20, 23]: 433 ng/mL and 300 ng/mL and 430 ng/mL
- Concentration, Plasma 6 h [20, 23]: 339 ng/mL and 293 ng/mL and 289 ng/mL
- Concentration, Plasma 24 h [20, 23]: 31.3 ng/mL and 20.3 ng/mL and 21.8 ng/mL
- Concentration, Tissue (48 h) Kidney [20, 23]: BLQ (2×) and 25.1 ng/mL
- Concentration, Tissue (48 h) Liver [20, 23]: BLQ
- AUClast [20, 24]: 6236 ng·h/mL
- CI_F_obs [20, 24]: 1565 mL/h/kg
- Cmax [20, 24]: 1053 ng/mL
- HL_Lambda_z (Half life time) [20, 24]: 4.98 h
- MRTlast (Mean retention time till last measured value) [20, 24]: 4.75 h
- Tmax [20, 24]: 30 min
- Vz_F_obs [20, 24]: 11.2 L/kg
- Concentration, Plasma 0 h ([20]; predose, SC single 10 mg/kg (C.105, C.189 in 10% Poloxamer 188; C.326 in 30% Captisol), individual animals and mean): BLQ
